13 compounds from patent US5426186A (priority 1993, dated 1995) can be followed below.

Counter-ions that a name gives are not always drawn.

In the assay the target is GABAa receptor. The experiment in a line: GABAa receptor binding assay, displacement of 3H-RO15-1788 from rat cortical tissue. The settings on record: 0.5 nM 3H-RO15-1788, rat cortical homogenate, 4° C., nonspecific binding with 1.0 μM diazepam. The procedure:
The pharmaceutical utility of compounds of this invention are indicated by the following assay for GABAa receptor activity.
Assays are carried out as described in Thomas and Tallman (J. Bio. Chem. 156: 9838-9842, J. Neurosci. 3:433-440, 1983). Rat cortical tissue is dissected and homogenized in 25 volumes (w/v) of 0.05M Tris HCl buffer (pH 7.4 at 4° C.). The tissue homogenate is centrifuged in the cold (4°) at 20,000×g for 20'. The supernatant is decanted and the pellet is rehomogenized in the same volume of buffer and again centrifuged at 20,000×g. The supernatant is decanted and the pellet is frozen at -20° C. overnight. The pellet is then thawed and rehomogenized in 25 volume (original wt/vol) of buffer and the procedure is carried out twice. The pellet is finally resuspended in 50 volumes (w/vol of 0.05M Tris HCl buffer (pH 7.4 at […]).
Incubations contain 100 μl of tissue homogenate, 100 μl of radioligand 0.5 nM (^3 H-RO15-1788 specific activity 80 Ci/mmol), drug or blocker and buffer to a total volume of 500 μl. Incubations are carried for 30 rain at 4° C. then are rapidly filtered through GFB filters to separate free and bound ligand. Filters are washed twice with fresh 0.05M Tris HCl buffer (pH 7.4 at 4° C.) and counted in a liquid scintillation counter 1.0 μM diazepam is added to some tubes to determine nonspecific binding. Data are collected in triplicate determinations, averaged and % inhibition of total specific binding is calculated. Total Specific Binding=Total-Nonspecific. In some cases, the amounts of unlabeled drugs is varied and total displacement curves of binding are carried out. Data are converted to a form for the calculation of IC50 and Hill Coefficient (nH).

One may read the IC50 as the midpoint of a concentration-inhibition curve. `CCOC(=O)C1CCc2[nH]c(=O)n3cc(-c4ccccc4F)nc3c2C1` (stereo not shown) [Compound 1, 9-Carboethoxy-2-(2-fluorophenyl)-7,8,9,10-tetrahydro-imidazo[1,2-c]-quinazolin-5(6H)-one] came in with an IC50 of 7 nM. `O=c1[nH]c2c(c3nc(-c4ccccc4F)cn13)CCCC2` [Compound 5, 2-(2-Fluorophenyl)-7,8,9,10-tetrahydro-imidazo[1,2-c]-quinazolin-5(6H)-one] displayed an IC50 of 7 nM.

Compound `O=c1[nH]c2c(c3nc(-c4ccccc4)cn13)CCC2` [Compound 12, 2-Phenyl-8,9-dihydro-7H-cyclopent[g]-imidazo[1,2-c]-pyrimidin-5(6H)-one] came in with an IC50 of 400 nM.

In the case of `O=c1[nH]c2c(c3nc(-c4ccccc4)cn13)CCCCC2` [Compound 13, 2-Phenyl-8,9,10,11-tetrahydro-7H-cyclohept[g]-imidazo[1,2-c]pyrimidin-5(6H)-one], the IC50 was found to be 800 nM. Compared with the last compound, the IC50 is about 2-fold higher. Take `CC(C)OC(=O)C1CCc2[nH]c(=O)n3cc(-c4ccccc4F)nc3c2C1` (stereo not shown) [Compound 14, 9-Carboisopropoxy-2-(2-fluorophenyl)-7,8,9,10-tetrahydro-imidazo[1,2-c]-quinazolin-5(6H)-one]: the IC50 came out at 10 nM. As for `CN(C)C(=O)C1CCc2[nH]c(=O)n3cc(-c4ccccc4F)nc3c2C1` (stereo not shown) [Compound 18, 9-(N,N-Dimethylcarbamyl)-2-(2-fluorophenyl)-7,8,9,10-tetrahydro-imidazo[1,2-c]-quinazolin-5(6H)-one], the IC50 is 10 nM. Regarding `CN(C)CC1CCc2[nH]c(=O)n3cc(-c4ccccc4F)nc3c2C1` (stereo not shown) [Compound 24, 9-(N,N-Dimethylaminomethyl)-2-(2-fluoropenyl)-7,8,9,10-tetrahydro-imidazo[1,2-c]-quinazolin-5(6H)-one monohydrochloride], the IC50 is 30 nM. This IC50 is about 3-fold higher than that of the compound before.

For `CC(C)(C)OC(=O)NC1CCc2[nH]c(=O)n3cc(-c4ccccc4F)nc3c2C1` (stereo not shown) [Compound 28, 9-(t-Butoxycarbonylamino)-2-(2-fluorophenyl)-7,8,9,10-tetrahydro-imidazo[1,2-c]-quinazolin-5(6H)-one], the IC50 was 150 nM.

In the case of `Fc1ccccc1-c1cn2c(NCc3ccccc3)nc3c(c2n1)CCCC3` [Compound 31, 5-(N-benzylamino)-2-(2-fluorophenyl)-7,8,9,10-tetrahydro-imidazo[1,2-c]-quinazoline], the IC50 came out at 2000 nM. As to `Nc1nc2c(c3nc(-c4ccccc4F)cn13)CCCC2` [Compound 33, 5-Amino-2-(2-fluorophenyl)-7,8,9,10-tetrahydro-imidazo[1,2-c]-quinazoline], the IC50 was 100 nM. As for `CCOc1nc2c(c3nc(-c4ccccc4F)cn13)CCCC2` [Compound 39, 5-Ethoxy-2-(2-fluorophenyl)-7,8,9,10-tetrahydro-imidazo[1,2-c]-quinazoline], the concentration for half-maximal inhibition (IC50) is 5000 nM. This IC50 lies about 50-fold higher than the previous one.

Compound `COc1ccc(-c2cn3c(=O)[nH]c4c(c3n2)CCCC4)cc1` [Compound 50, 2-(4-Methoxyphenyl)-7,8,9,10-tetrahydro-imidazo[1,2-c]-quinazolin-5(6H)-one] had an IC50 of 50 nM. Compared with the last compound, the IC50 is about 100-fold lower.

`COc1ccc(-c2cn3c(=O)[nH]c4c(c3n2)CCCC4)c(F)c1` [Compound 51, 2-(2-Fluoro-4-methoxyphenyl)-7,8,9,10-tetrahydro-imidazo[1,2-c]-quinazolin-5(6H)-one] registered an IC50 of 3 nM.
